Where “and” joins values, the source holds several entries; their conditions need not be identical. Equal entries are not always repeated.
Assays:
human RXFP1 = target: T1, human RXFP1 (Homo sapiens, UniProt Q9HBX9); assay: HTRF cAMP counter-screen in HEK293T cells expressing human RXFP1; type: cell-based; conditions: human RXFP1, positive control, experiments (1)-(3)
T1 construct: FLAG (N); expressed in transfected cells
T1 sequence (Q9HBX9 1-757): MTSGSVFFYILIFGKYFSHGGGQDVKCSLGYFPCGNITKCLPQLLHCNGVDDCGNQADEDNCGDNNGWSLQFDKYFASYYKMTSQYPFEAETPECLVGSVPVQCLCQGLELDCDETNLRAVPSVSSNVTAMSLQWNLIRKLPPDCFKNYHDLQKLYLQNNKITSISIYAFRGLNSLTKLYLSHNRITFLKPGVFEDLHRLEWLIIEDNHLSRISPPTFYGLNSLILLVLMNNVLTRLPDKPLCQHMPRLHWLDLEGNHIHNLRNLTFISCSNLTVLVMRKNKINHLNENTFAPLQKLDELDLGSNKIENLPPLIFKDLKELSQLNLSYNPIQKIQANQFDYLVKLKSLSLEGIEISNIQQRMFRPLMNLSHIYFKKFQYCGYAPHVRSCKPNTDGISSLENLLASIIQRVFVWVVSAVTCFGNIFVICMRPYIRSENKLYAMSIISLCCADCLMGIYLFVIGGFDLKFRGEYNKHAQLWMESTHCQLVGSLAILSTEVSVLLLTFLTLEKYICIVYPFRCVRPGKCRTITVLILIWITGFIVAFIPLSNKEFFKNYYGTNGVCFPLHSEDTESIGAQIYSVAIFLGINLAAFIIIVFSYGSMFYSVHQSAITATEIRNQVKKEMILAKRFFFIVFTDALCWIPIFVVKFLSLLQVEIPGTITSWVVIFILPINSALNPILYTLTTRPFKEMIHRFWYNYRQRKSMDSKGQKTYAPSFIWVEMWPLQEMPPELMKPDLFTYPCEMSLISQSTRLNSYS
Experimental: (§1) The HTRF Gs dynamic cAMP assay kit (CisBio, Bedford, MA) was used to measure intracellular cAMP accumulation in HEK293T cells (ATCC, Manassas, VA)[56]. […] The cell stock was verified mycoplasma free and authenticated by ATCC. Transient transfection was accomplished by treating cells in a 6-well plate with a mixture of 2 μg plasmid and 6 μL Lipofectamine 2000 (Invitrogen, Waltham, MA) per manufacturer’s protocol and incubating overnight. For cAMP measurement in 96-well format, HEK293T cells stably transfected with human RXFP2 (HEK-RXFP2), human RXFP1 (HEK-RXFP1), mouse Rxfp1 (HEK-Rxfp1) or transiently transfected with human RXFP1-RXFP2 chimeric receptors were seeded between 7500 and 30,000 cells per well, depending on cell line responsiveness, in serum-free DMEM medium and incubated overnight at 37 °C, 5% CO2. After 18 h, cells were treated with a titration of compound, 2 μM forskolin, or DMSO vehicle. Control wells were also treated with a titration of INSL3 (Phoenix Pharmaceuticals, Burlingame, CA) or human recombinant relaxin 2 (Peprotech, Cranbury, NJ). For the RXFP2 antagonist experiment, cells were co-treated with 0.28 μM compound or 30 nM INSL3 and a titration of the INSL3 B dimer antagonist[38],[39]. For the INSL3 allosteric modulation experiment, cells were co-treated with 0.025, 0.0025, or 0.00025 μM of compound and a titration of INSL3. Cells were incubated for 1 h at 37 °C, 5% CO2, and then kit cAMP-d2 and anti-cAMP antibody were added per manufacturer protocol. Plates were incubated for 1 h at room temperature and the signal was read on a CLARIOstar plate reader (BMG Labtech, Ortenberg, Germany) at 665 and 620 nm emission wavelengths. […]
(§2) receptors. HTRF cAMP counter-screen of RXFP2 agonists in HEK293T cells expressing a human RXFP1 and b mouse RXFP1. Relaxin 2 was used as positive control for RXFP1 receptor activation. Results are expressed as mean ± SEM of 3

mouse RXFP1 = target: T2, mouse RXFP1 (Mus musculus, UniProt Q6R6I7); assay: HTRF cAMP counter-screen in HEK293T cells expressing mouse RXFP1; type: cell-based; conditions: mouse RXFP1, positive control, experiments (1)-(3)
T2 construct: FLAG (N); expressed in transfected cells
T2 sequence (Q6R6I7 1-758): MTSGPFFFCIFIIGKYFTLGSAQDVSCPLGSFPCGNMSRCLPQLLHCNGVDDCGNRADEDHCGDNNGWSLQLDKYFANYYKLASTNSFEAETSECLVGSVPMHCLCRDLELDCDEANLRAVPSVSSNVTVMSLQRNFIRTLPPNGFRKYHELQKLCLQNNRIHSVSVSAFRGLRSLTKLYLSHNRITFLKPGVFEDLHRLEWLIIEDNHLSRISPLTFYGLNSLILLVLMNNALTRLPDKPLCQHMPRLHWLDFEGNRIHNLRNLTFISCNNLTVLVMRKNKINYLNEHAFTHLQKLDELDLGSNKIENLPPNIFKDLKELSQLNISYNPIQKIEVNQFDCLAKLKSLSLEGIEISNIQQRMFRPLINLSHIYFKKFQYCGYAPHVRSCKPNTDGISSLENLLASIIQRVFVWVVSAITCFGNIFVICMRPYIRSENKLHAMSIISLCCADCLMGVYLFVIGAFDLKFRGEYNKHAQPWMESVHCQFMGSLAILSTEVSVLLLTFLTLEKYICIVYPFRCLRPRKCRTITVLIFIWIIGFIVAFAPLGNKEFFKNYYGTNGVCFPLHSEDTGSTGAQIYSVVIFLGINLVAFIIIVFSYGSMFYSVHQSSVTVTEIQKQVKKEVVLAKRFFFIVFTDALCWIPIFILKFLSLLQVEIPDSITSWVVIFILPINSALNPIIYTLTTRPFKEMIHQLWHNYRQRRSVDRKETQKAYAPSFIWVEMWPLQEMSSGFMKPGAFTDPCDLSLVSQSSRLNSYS
Experimental: as §1, §2

[1] = target: chimera RXFP2-1 (extracellular domain of RXFP2, transmembrane domain of RXFP1) (human); set-up: EC50 of the cAMP response (HTRF cAMP assay, transiently transfected HEK293T cells): unit not given beside the values

Substance	% Eff (cAMP) (human RXFP1; Log [M] -7)	% Eff (cAMP) (human RXFP1; Log [M] -8)	% Eff (cAMP) (human RXFP1; Log [M] -9)	% Eff (cAMP) (human RXFP1; Log [M] -11)	% Eff (cAMP) (mouse RXFP1; Log [M] -7)	% Eff (cAMP) (mouse RXFP1; Log [M] -8)	% Eff (cAMP) (mouse RXFP1; Log [M] -9)	% Eff (cAMP) (mouse RXFP1; Log [M] -10)	% Eff (cAMP) (mouse RXFP1; Log [M] -11)	EC50 of the cAMP response (HTRF cAMP assay, transiently transfected HEK293T cells) [1]	Emax of the cAMP response (HTRF cAMP assay, transiently transfected HEK293T cells; normalized to 2 µM FSK as 100% efficacy) [1]
Relaxin	514.186% and 485.16% and 431.341%	600.088% and 494.195% and 523.956%	370.096% and 250.531% and 374.784%	-0.2294% and 1.737% and 3.775%	488.966% and 468.543% and 521.705%	318.502% and 312.701% and 407.269%	105.124% and 102.88% and 64.6466%	7.396% and 8.915% and 6.254%	0.7539% and 1.08% and 0.2993%		
insulin-like factor 3 peptide (INSL3) (ligand)										0.74	92.3

— publication PMC9636434, “Discovery of small molecule agonists of the Relaxin Family Peptide Receptor 2” (Communications Biology, 2022)
